The target in one assay is RET kinase G810R (Homo sapiens, UniProt P07949, G810R). As to the kind of experiment: RET Enzyme Assay (HTRF KinEASE-TK), G810R. Format: biochemical. A general note: TR-FRET usually uses a lanthanide donor and a delayed reading to cut background.
Assay [1] concerns the target T1, HEK-293 cells expressing a G810R mutant RET Kif5b-RET fusion protein (Homo sapiens, UniProt P07949, G810R).
T1 construct: expressed in transfected cells; host or cells: HEK-293; the other entry of the earlier key: KIF5B (P33176, Kinesin-1 heavy chain)
T1 sequence (P07949 713-1063 G810R limits assumed): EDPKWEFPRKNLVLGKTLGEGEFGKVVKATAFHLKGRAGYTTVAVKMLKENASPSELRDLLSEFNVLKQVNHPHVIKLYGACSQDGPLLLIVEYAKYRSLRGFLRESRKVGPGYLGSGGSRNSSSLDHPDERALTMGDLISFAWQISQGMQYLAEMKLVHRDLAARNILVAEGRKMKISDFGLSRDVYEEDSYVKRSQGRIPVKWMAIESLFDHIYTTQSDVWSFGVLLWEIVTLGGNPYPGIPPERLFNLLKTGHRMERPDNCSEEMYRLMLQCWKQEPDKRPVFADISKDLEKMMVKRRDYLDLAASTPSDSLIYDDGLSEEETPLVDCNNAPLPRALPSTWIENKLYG
The assay can be described thus: RET G810R Mutant Cell Assay (phospho-RET Tyr1062). Format: cell-based. As to conditions: 1 hour with compound, phospho-RET(Tyr1062) normalized to GAPDH. The method, then:
RET G810R and G810S Mutant Cell Assay
(§1) The cellular potency of compounds inhibiting RET kinase were determined in HEK-293 cells expressing a G810R or G810S mutant RET Kif5b-RET fusion protein. Briefly, HEK-293 cells expressing a G810R or G810S mutant RET Kif5b-RET fusion protein were plated at 50K cells/well in 96 well poly-D-Lysine coated plates the day prior to the assay. The cells were incubated for 1 hour with test compound in DMEM (Dulbecco's Modified Eagle Medium) at a final DMSO concentration of 0.5%. […] After 1 hour the media was removed, the cells were fixed with 3.8% formaldehyde for 20 min, washed with PBS, and permeabilized for 10 min with 100% methanol. […] All antibodies were diluted in LI-COR Block containing 0.05% Tween. The plates were washed with PBS-0.05% Tween20, 100 μL PBS was added to each well, and the plates were read on a LI-COR Aerius fluorescent plate reader. The phospho-RET signal was normalized to the GAPDH signal. 100 POC (percent of control) was determined using no test compounds and 0 POC was determined using 1 μM of a control inhibitor. The POC values are fit to a 4 parameter logistic curve. The IC50 value is the point where the curve crosses 50 POC.

The next assay deals with RET kinase V804M (Homo sapiens, UniProt P07949, V804M). The assay can be described thus: RET Enzyme Assay (HTRF KinEASE-TK), V804M. It counts as biochemical.
Chain of RET kinase V804M (P07949 29-1114 V804M): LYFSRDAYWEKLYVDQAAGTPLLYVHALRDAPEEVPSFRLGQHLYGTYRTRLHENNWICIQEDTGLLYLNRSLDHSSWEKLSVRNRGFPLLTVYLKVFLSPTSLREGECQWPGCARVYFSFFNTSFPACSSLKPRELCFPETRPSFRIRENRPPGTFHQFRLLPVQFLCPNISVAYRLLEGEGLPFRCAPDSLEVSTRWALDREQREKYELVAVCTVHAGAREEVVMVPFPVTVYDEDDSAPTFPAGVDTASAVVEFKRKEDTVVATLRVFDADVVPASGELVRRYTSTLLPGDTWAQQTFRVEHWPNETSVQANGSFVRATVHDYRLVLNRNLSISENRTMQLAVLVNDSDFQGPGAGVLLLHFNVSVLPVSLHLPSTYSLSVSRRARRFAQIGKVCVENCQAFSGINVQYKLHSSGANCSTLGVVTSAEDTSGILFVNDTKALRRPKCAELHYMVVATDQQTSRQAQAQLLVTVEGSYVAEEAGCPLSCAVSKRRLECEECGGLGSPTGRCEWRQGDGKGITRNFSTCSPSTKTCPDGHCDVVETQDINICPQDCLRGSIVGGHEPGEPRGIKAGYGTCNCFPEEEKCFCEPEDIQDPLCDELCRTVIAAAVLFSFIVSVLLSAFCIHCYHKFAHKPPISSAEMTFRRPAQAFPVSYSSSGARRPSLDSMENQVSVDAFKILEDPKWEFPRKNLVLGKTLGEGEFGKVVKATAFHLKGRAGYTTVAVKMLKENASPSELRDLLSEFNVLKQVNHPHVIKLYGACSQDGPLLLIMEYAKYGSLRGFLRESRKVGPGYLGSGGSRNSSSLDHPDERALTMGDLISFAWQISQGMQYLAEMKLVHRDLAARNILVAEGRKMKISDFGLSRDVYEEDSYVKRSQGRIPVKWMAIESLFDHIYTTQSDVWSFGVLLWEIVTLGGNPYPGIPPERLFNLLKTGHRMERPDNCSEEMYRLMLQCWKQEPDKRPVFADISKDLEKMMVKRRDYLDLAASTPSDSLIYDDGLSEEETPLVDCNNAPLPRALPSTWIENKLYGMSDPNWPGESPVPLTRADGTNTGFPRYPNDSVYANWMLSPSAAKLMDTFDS
The next assay concerns the target RET kinase M918T (Homo sapiens, UniProt P07949, M918T). The assay can be described thus: RET Enzyme Assay (HTRF KinEASE-TK), M918T. It counts as biochemical.
Another assay deals with RET kinase G810S (Homo sapiens, UniProt P07949, G810S). As to the kind of experiment: RET Enzyme Assay (HTRF KinEASE-TK), G810S. Format: biochemical.
Chain of RET kinase G810S (P07949 29-1114 G810S): as the sequence (P07949 29-1114 V804M) above, with M776V, G782S counted along it
The next assay concerns the target RET kinase Wild Type (Homo sapiens, UniProt P07949). The assay can be described thus: RET Enzyme Assay (HTRF KinEASE-TK), Wild Type. Format: biochemical.
Assay [2] addresses T2, HEK-293 cells expressing a Kif5b-RET fusion protein (Homo sapiens, UniProt P07949).
T2 construct: expressed in transfected cells; host or cells: HEK-293; the other entry of the earlier key: KIF5B (P33176, Kinesin-1 heavy chain)
T2 sequence (P07949 713-1063 limits assumed): T1 sequence (P07949 713-1063 G810R limits assumed) with R98G
The assay can be described thus: RET Cell Assay (phospho-RET Tyr1062). Format: cell-based. As to conditions: 1 hour with compound, phospho-RET(Tyr1062) normalized to GAPDH, read-out: KIF5B-RET pTYR1062 Cell IC50. The method, then: as §1, with “a” for “a G810R or G810S mutant RET”, “PBS is” for “PBS was”, “values were” for “values are”

One may read the IC50 as the midpoint of a concentration-inhibition curve.

Where a chain is given by its changes, count along the chain named.

Chain of RET kinase M918T (P07949 29-1114 M918T): as the sequence (P07949 29-1114 V804M) above, with M776V, M890T counted along it
Chain of RET kinase Wild Type (P07949 29-1114): as the sequence (P07949 29-1114 V804M) above, with M776V counted along it
Chain of RET kinase G810R (P07949 29-1114 G810R): as the sequence (P07949 29-1114 V804M) above, with M776V, G782R counted along it

For the compound `C=Cc1cc(-c2nn(C(C)C)c3ncnc(N)c23)n(C2CCCCO2)n1` (stereo not shown) [Example 22, 1-isopropyl-3-(1-(tetrahydro-2H-pyran-2-yl)-3-vinyl-1H-pyrazol-5-yl)-1H-pyrazolo[3,4-d]pyrimidin-4-amine], the concentration for half-maximal inhibition (IC50) against RET kinase G810R amounted to 16.5 nM; in assay [1], 214 nM; on RET kinase V804M it was 307 nM; against RET kinase M918T, 3 nM; against RET kinase G810S, 13 nM; against RET kinase Wild Type, 2.3 nM. Also, the IC50 in assay [2] amounted to 21 nM.

For the compound `CC(C)n1nc(-c2noc(C3CC3)c2C2CCCCO2)c2c(N)ncnc21` (stereo not shown) [Example 16, 3-(5-cyclopropyl-4-(tetrahydro-2H-pyran-2-yl)isoxazol-3-yl)-1-isopropyl-1H-pyrazolo[3,4-d]pyrimidin-4-amine], the IC50 on RET kinase G810R amounted to 3.6 nM; in assay [1] it was 162 nM; at RET kinase V804M it was 1.3 nM; against RET kinase M918T it was 0.7 nM; on RET kinase G810S, 4 nM; against RET kinase Wild Type it was 0.6 nM. For the same compound, the IC50 in assay [2] is 28 nM.

Regarding `CC(C)n1nc(-c2noc([C@@H](C)O)c2-c2ccccn2)c2c(N)ncnc21` [Example 18, (R)-1-(3-(4-amino-1-isopropyl-1H-pyrazolo[3,4-d]pyrimidin-3-yl)-4-(pyridin-2-yl)isoxazol-5-yl)ethan-1-ol], the IC50 against RET kinase G810R came to 4.4 nM; on RET kinase V804M, 3.1 nM; on RET kinase M918T it was 1 nM; at RET kinase G810S, 4.3 nM; against RET kinase Wild Type, 1.1 nM; in assay [2] it was 42 nM.

`Cc1cc(-c2nn(C(C)C)c3ncnc(N)c23)n(C2CCCCO2)n1` (stereo not shown) [Example 21, 1-isopropyl-3-(3-methyl-1-(tetrahydro-2H-pyran-2-yl)-1H-pyrazol-5-yl)-1H-pyrazolo[3,4-d]pyrimidin-4-amine]: the IC50 was 19.5 nM at RET kinase G810R; 342 nM in assay [1]; 260 nM against RET kinase V804M; 4.1 nM against RET kinase M918T; 17.9 nM against RET kinase G810S; 2.1 nM on RET kinase Wild Type. For the same compound, in assay [2], the IC50 was found to be 36 nM.

`CC(C)n1nc(-c2noc(C3CC3)c2C2=COCCC2)c2c(N)ncnc21` [Example 10, 3-(5-cyclopropyl-4-(3,4-dihydro-2H-pyran-5-yl)isoxazol-3-yl)-1-isopropyl-1H-pyrazolo[3,4-d]pyrimidin-4-amine]: the IC50 against RET kinase G810R is 4.1 nM; on RET kinase V804M, 13.8 nM; against RET kinase M918T it was 2.2 nM; against RET kinase G810S, 13.6 nM; at RET kinase Wild Type it was 1.5 nM; in assay [2], 199 nM.

Consider `CC(C)n1nc(-c2noc(C3CC3)c2C2=CCCCO2)c2c(N)ncnc21` [Example 9, 3-(5-cyclopropyl-4-(3,4-dihydro-2H-pyran-6-yl)isoxazol-3-yl)-1-isopropyl-1H-pyrazolo[3,4-d]pyrimidin-4-amine], for which the IC50 against RET kinase G810R came to 1.4 nM; in assay [1] it was 137 nM; on RET kinase V804M, 0.6 nM; on RET kinase M918T, 0.2 nM; against RET kinase G810S, 1.4 nM; at RET kinase Wild Type, 0.3 nM. Also, the IC50 in assay [2] is 24 nM.

For `CC(C)n1nc(-c2noc(C3CC3)c2-c2ccccc2)c2c(N)ncnc21` [Example 6, 3-(5-cyclopropyl-4-phenylisoxazol-3-yl)-1-isopropyl-1H-pyrazolo[3,4-d]pyrimidin-4-amine], the IC50 at RET kinase G810R was 10 nM; against RET kinase V804M, 23.9 nM; against RET kinase M918T it was 4.5 nM; against RET kinase G810S, 26.2 nM; on RET kinase Wild Type, 4.7 nM; in assay [2], 488 nM.

In the case of `CC(C)n1nc(-c2ccnn2C2CCCCO2)c2c(N)ncnc21` (stereo not shown) [Example 23, 1-isopropyl-3-(1-(tetrahydro-2H-pyran-2-yl)-1H-pyrazol-5-yl)-1H-pyrazolo[3,4-d]pyrimidin-4-amine], the IC50 at RET kinase G810R is 15.8 nM; in assay [1], 10000 nM; at RET kinase V804M it was 27.4 nM; on RET kinase M918T, 8.5 nM; on RET kinase G810S, 46 nM; at RET kinase Wild Type, 4.1 nM. In addition, the IC50 in assay [2] is 344 nM.

Take `CC(C)n1nc(-c2noc(C3CC3)c2-c2ncccn2)c2c(N)ncnc21` [Example 11, 3-(5-cyclopropyl-4-(pyrimidin-2-yl)isoxazol-3-yl)-1-isopropyl-1H-pyrazolo[3,4-d]pyrimidin-4-amine]: the 50% inhibitory concentration (IC50) at RET kinase G810R was found to be 3.5 nM; at RET kinase V804M, 4.4 nM; on RET kinase M918T it was 1.2 nM; against RET kinase G810S, 4.9 nM; on RET kinase Wild Type, 1.5 nM; in assay [2] it was 86 nM.

As for `CC(C)n1nc(-c2cc(C3CC3)nn2C2CCCCO2)c2c(N)ncnc21` (stereo not shown) [Example 19, 3-(3-cyclopropyl-1-(tetrahydro-2H-pyran-2-yl)-1H-pyrazol-5-yl)-1-isopropyl-1H-pyrazolo[3,4-d]pyrimidin-4-amine], the IC50 is 28.9 nM at RET kinase G810R; 628 nM in assay [1]; 418 nM against RET kinase V804M; 6.1 nM against RET kinase M918T; 24.1 nM on RET kinase G810S; 3.9 nM against RET kinase Wild Type. The IC50 in assay [2] is 40 nM.

On to `CC(C)n1nc(-c2noc(C3CC3)c2C2=CCC(O)CC2)c2c(N)ncnc21` (stereo not shown) [Example 14, 4-(3-(4-amino-1-isopropyl-1H-pyrazolo[3,4-d]pyrimidin-3-yl)-5-cyclopropylisoxazol-4-yl)cyclohex-3-en-1-ol], for which the IC50 is 4.1 nM against RET kinase G810R; 86 nM in assay [1]; 7 nM against RET kinase V804M; 1.5 nM against RET kinase M918T; 4.9 nM against RET kinase G810S; 1.2 nM against RET kinase Wild Type. In assay [2], the IC50 was 35 nM.

Regarding `CC(C)n1nc(-c2noc(C3CC3)c2C2=CCC(=O)CC2)c2c(N)ncnc21` [Example 5, 4-(3-(4-amino-1-isopropyl-1H-pyrazolo[3,4-d]pyrimidin-3-yl)-5-cyclopropylisoxazol-4-yl)cyclohex-3-en-1-one], the IC50 at RET kinase G810R was found to be 7.1 nM; against RET kinase V804M, 20.5 nM; on RET kinase M918T it was 3.2 nM; against RET kinase G810S, 11.7 nM; at RET kinase Wild Type, 2.7 nM; in assay [2], 105 nM.

Take `CC(C)n1nc(-c2noc(C3CC3)c2Br)c2c(N)ncnc21` [Example 1, 3-(4-bromo-5-cyclopropylisoxazol-3-yl)-1-isopropyl-1H-pyrazolo[3,4-d]pyrimidin-4-amine]: the IC50 on RET kinase G810R came to 3.8 nM; against RET kinase V804M, 5.7 nM; on RET kinase M918T, 1.8 nM; against RET kinase G810S, 11.7 nM; against RET kinase Wild Type, 2.1 nM; in assay [2], 263 nM.

Source of the values: US11524963B2, “Substituted pyrazolo[3,4-d]pyrimidines as RET kinase inhibitors” (Array Biopharma Inc., priority 2018, dated 2022).
